Results taken from patent US11608335B2, “Somatostatin modulators and uses thereof” (CRINETICS PHARMACEUTICALS, INC., priority 2018, dated 2023).
Read-outs that look alike come from different tables or passages of the source.

Biological target: human somatostatin receptor subtype 5 (Homo sapiens, UniProt P35346)
Experiment: cAMP assay for SST5R (inhibition of cAMP via human SST5 receptor)

Chain of human somatostatin receptor subtype 5 (P35346 whole entry): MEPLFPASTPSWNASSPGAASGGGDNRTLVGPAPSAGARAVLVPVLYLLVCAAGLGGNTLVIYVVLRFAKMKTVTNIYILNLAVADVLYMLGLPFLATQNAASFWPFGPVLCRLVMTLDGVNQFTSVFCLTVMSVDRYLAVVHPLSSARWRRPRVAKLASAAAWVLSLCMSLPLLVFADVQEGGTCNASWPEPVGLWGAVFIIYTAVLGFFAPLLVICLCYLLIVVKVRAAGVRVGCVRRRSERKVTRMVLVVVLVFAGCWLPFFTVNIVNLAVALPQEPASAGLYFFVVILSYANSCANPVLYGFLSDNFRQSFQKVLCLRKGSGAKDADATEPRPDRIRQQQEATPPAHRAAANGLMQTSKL

Row | Structure (SMILES) | EC50 | Fold selectivity for SST5 vs SST2 (SST5 over SST2, class symbols) | EC50 (read-out: SST5 potency, inhibition of cAMP via human SST5 receptor, Table B)
1 | CS(=O)(=O)c1cc(F)cc(-c2cncc(-c3nc4cccc(F)c4[nH]3)c2N2CC[C@H](N)C2)c1 [Compound 2-92, (3S)-1-[3-(4-fluoro-1H-1,3-benzodiazol-2-yl)-5-(3-fluoro-5-methanesulfonylphenyl)pyridin-4-yl]pyrrolidin-3-amine] | 10 to 100 nM | – | –
2 | CS(=O)(=O)c1cccc(-c2cncc(-c3nc4cc(F)cc(F)c4[nH]3)c2N2CC[C@H](N)C2)c1 [Compound 2-93, (3S)-1-[3-(4,6-difluoro-1H-1,3-benzodiazol-2-yl)-5-(3-methanesulfonylphenyl)pyridin-4-yl]pyrrolidin-3-amine] | 100 to 1000 nM | – | –
3 | N[C@H]1CCN(c2c(-c3cc(F)cc(Cl)c3)cncc2-c2nc3ccc(Cl)cc3[nH]2)C1 [Compound 2-95, (3S)-1-[3-(5-chloro-1H-1,3-benzodiazol-2-yl)-5-(3-chloro-5-fluorophenyl)pyridin-4-yl]pyrrolidin-3-amine] | 10 to 100 nM | – | –
4 | Cc1ccc(F)c2nc(-c3cncc(-c4cc(F)cc(C(N)=O)c4)c3N3CC[C@H](N)C3)[nH]c12 [Compound 2-96, 3-{4-[(3S)-3-aminopyrrolidin-1-yl]-5-(7-fluoro-4-methyl-1H-1,3-benzodiazol-2-yl)pyridin-3-yl}-5-fluorobenzamide] | < 10 nM | – | –
5 | Cc1cccc2nc(-c3cncc(-c4cccc(C(N)=O)c4)c3N3CC[C@H](N)C3)[nH]c12 [Compound 2-97, 3-{4-[(3S)-3-aminopyrrolidin-1-yl]-5-(4-methyl-1H-1,3-benzodiazol-2-yl)pyridin-3-yl}benzamide] | < 10 nM | – | –
6 | Cc1cccc2nc(-c3cncc(-c4ccc(Cl)c(C#N)c4)c3N3CC[C@H](N)C3)[nH]c12 [Compound 2-98, 5-{4-[(3S)-3-aminopyrrolidin-1-yl]-5-(4-methyl-1H-1,3-benzodiazol-2-yl)pyridin-3-yl}-2-chlorobenzonitrile] | < 10 nM | – | –
7 | CCc1cccc2[nH]c(-c3cncc(-c4cccc(C#N)c4)c3N3CC[C@H](N)C3)nc12 [Compound 2-100, 3-{4-[(3S)-3-aminopyrrolidin-1-yl]-5-(4-ethyl-1H-1,3-benzodiazol-2-yl)pyridin-3-yl}benzonitrile] | < 10 nM | – | –
8 | COc1ccc2nc(-c3cncc(-c4cc(F)cc(Cl)c4)c3N3CC[C@H](N)C3)[nH]c2c1 [Compound 2-104, (3S)-1-[3-(3-chloro-5-fluorophenyl)-5-(5-methoxy-1H-1,3-benzodiazol-2-yl)pyridin-4-yl]pyrrolidin-3-amine] | 10 to 100 nM | – | –
9 | Cc1cccc2nc(-c3cncc(-c4ccnc(C(N)=O)c4)c3N3CCC(C)(N)C3)[nH]c12 (centres unmarked) [Compound 2-105, 4-(3-amino-3-methylpyrrolidin-1-yl)-5-(4-methyl-1H-1,3-benzodiazol-2-yl)-[3,4′-bipyridine]-2′-carboxamide] | 10 to 100 nM | – | –
10 | Cc1ccc(F)c2[nH]c(-c3cncc(-c4ccnc(C(N)=O)c4)c3N3CC[C@H](N)C3)nc12 [Compound 2-107, 4-[(3S)-3-aminopyrrolidin-1-yl]-5-(7-fluoro-4-methyl-1H-1,3-benzodiazol-2-yl)-[3,4′-bipyridine]-2′-carboxamide] | > 1000 nM | – | –
11 | Cc1cccc2nc(-c3cncc(-c4cc(F)cc(C(N)=O)c4)c3N3CCC(C)(N)C3)[nH]c12 (centres unmarked) [Compound 2-118, 3-[4-(3-amino-3-methylpyrrolidin-1-yl)-5-(4-methyl-1H-1,3-benzodiazol-2-yl)pyridin-3-yl]-5-fluorobenzamide] | < 10 nM | – | –
12 | Cc1ccnc2nc(-c3cncc(-c4ccc(F)c(C#N)c4)c3N3CCC(C)(N)C3)[nH]c12 (centres unmarked) [Compound 2-119, 5-[4-(3-amino-3-methylpyrrolidin-1-yl)-5-{7-methyl-1H-imidazo[4,5-b]pyridin-2-yl}pyridin-3-yl]-2-fluorobenzonitrile] | < 10 nM | ++ (++=100 to 499) | < 10 nM
13 | Cc1cccc2nc(-c3cncc(-c4cc(F)c(F)c(C(=O)O)c4)c3N3CCC(C)(N)C3)[nH]c12 (centres unmarked) [Compound 2-126, 5-[4-(3-amino-3-methylpyrrolidin-1-yl)-5-(4-methyl-1H-1,3-benzodiazol-2-yl)pyridin-3-yl]-2,3-difluorobenzoic acid] | > 1000 nM | – | –
14 | Cc1cc(-c2cncc(-c3nc4cccc(F)c4[nH]3)c2N2CC[C@H](N)C2)cc(N)n1 [Compound 2-130, 4-[(3S)-3-aminopyrrolidin-1-yl]-5-(4-fluoro-1H-1,3-benzodiazol-2-yl)-6′-methyl-[3,4′-bipyridin]-2′-amine] | 100 to 1000 nM | – | –

Next, values leading:

Row | EC50 | Fold selectivity for SST5 vs SST2 (SST5 over SST2, class symbols) | EC50 (read-out: SST5 potency, inhibition of cAMP via human SST5 receptor, Table B) | Structure (SMILES)
15 | < 10 nM | – | – | N#Cc1cc(F)cc(-c2cncc(-c3nc4ccc(F)c(F)c4[nH]3)c2N2CC[C@H](N)C2)c1 [Compound 2-99, 3-{4-[(3S)-3-aminopyrrolidin-1-yl]-5-(4,5-difluoro-1H-1,3-benzodiazol-2-yl)pyridin-3-yl}-5-fluorobenzonitrile]
16 | < 10 nM | – | – | Cc1ccc2nc(-c3cncc(-c4cc(F)cc(Cl)c4)c3N3CC[C@H](N)C3)[nH]c2c1 [Compound 2-102, (3S)-1-[3-(3-chloro-5-fluorophenyl)-5-(5-methyl-1H-1,3-benzodiazol-2-yl)pyridin-4-yl]pyrrolidin-3-amine]
17 | 10 to 100 nM | – | – | N#Cc1ccc2nc(-c3cncc(-c4cc(F)cc(Cl)c4)c3N3CC[C@H](N)C3)[nH]c2c1 [Compound 2-103, 2-{4-[(3S)-3-aminopyrrolidin-1-yl]-5-(3-chloro-5-fluorophenyl)pyridin-3-yl}-1H-1,3-benzodiazole-5-carbonitrile]
18 | 10 to 100 nM | – | – | Cn1c(-c2cncc(-c3cc(F)cc(C#N)c3)c2N2CC[C@H](N)C2)nc2ccccc21 [Compound 2-110, 3-{4-[(3S)-3-aminopyrrolidin-1-yl]-5-(1-methyl-1H-1,3-benzodiazol-2-yl)pyridin-3-yl}-5-fluorobenzonitrile]
19 | 10 to 100 nM | – | – | CCCn1c(-c2cncc(-c3cc(F)cc(C#N)c3)c2N2CC[C@H](N)C2)nc2ccccc21 [Compound 2-111, 3-{4-[(3S)-3-aminopyrrolidin-1-yl]-5-(1-propyl-1H-1,3-benzodiazol-2-yl)pyridin-3-yl}-5-fluorobenzonitrile]
20 | 100 to 1000 nM | – | – | COCCn1c(-c2cncc(-c3cc(F)cc(C#N)c3)c2N2CC[C@H](N)C2)nc2ccccc21 [Compound 2-112, 3-{4-[(3S)-3-aminopyrrolidin-1-yl]-5-[1-(2-methoxyethyl)-1H-1,3-benzodiazol-2-yl]pyridin-3-yl}-5-fluorobenzonitrile]
21 | 100 to 1000 nM | – | – | N#CCn1c(-c2cncc(-c3cc(F)cc(C#N)c3)c2N2CC[C@H](N)C2)nc2ccccc21 [Compound 2-113, 3-{4-[(3S)-3-aminopyrrolidin-1-yl]-5-[1-(cyanomethyl)-1H-1,3-benzodiazol-2-yl]pyridin-3-yl}-5-fluorobenzonitrile]
22 | < 10 nM | – | – | Cc1cccc2c1nc(-c1cncc(-c3cc(F)cc(C#N)c3)c1N1CC[C@H](N)C1)n2C [Compound 2-114, 3-{4-[(3S)-3-aminopyrrolidin-1-yl]-5-(1,4-dimethyl-1H-1,3-benzodiazol-2-yl)pyridin-3-yl}-5-fluorobenzonitrile]
23 | 10 to 100 nM | – | – | Cn1c(-c2cncc(-c3cc(F)cc(C#N)c3)c2N2CC[C@H](N)C2)nc2cccc(Cl)c21 [Compound 2-117, 3-{4-[(3S)-3-aminopyrrolidin-1-yl]-5-(7-chloro-1-methyl-1H-1,3-benzodiazol-2-yl)pyridin-3-yl}-5-fluorobenzonitrile]
24 | 10 to 100 nM | – | – | Cc1cccc2[nH]c(-c3cncc(-c4cc(F)cc(C#N)c4)c3N3CC[C@H](N)C3)cc12 [Compound 2-129, 3-{4-[(3S)-3-aminopyrrolidin-1-yl]-5-(4-methyl-1H-indol-2-yl)pyridin-3-yl}-5-fluorobenzonitrile]
